Where two headings read alike, the source gives them in different places.
Experiments:
[1] = Surface tension by Wilhelmy plate tensiometer; CMC from break point of surface tension vs. log C; format: physicochemical; conditions: room temperature
Method: The solubility of the surfactants in water was assessed visually at room temperature. The mixture at each concentration was examined after at least 10 min of mild shaking and ultrasonic bath agitation to see if the surfactant completely dissolved. […] Surface tension was determined with a Wilhelmy Plate tensiometer (Cahn DCA-322) at room temperature. Glass slides manufactured by Corning with a width of 22 mm and thickness of 0.1 mm were used as probes. The motor speed was set to be 100 μm/sec. The CMC was determined from the break point of Υvs. log C diagram with a custom Microsoft Visual Basic program.

[2] = Draves wetting test (ASTM D2281-68); format: physicochemical
Method: The Draves wetting test was performed according to ASTM […]-68. 500 mL of surfactant solution was poured into a 500 mL graduated cylinder (38 cm in height), and a 5.0 g standard skein hooked with a lead anchor was dropped into the solution. The skein floats in the solution initially and sinks when wetted, and the time taken was recorded as the time of wetting.

[3] = Krafft temperature determination; format: physicochemical; conditions: within 48 hours
Method: […] the solution to 4° C. and then raising the temperature by 1° C. steps and visually inspecting its phase behavior after the solution reached thermal equilibrium. For hardness tolerance, a known amount of calcium chloride was added to the solution prior to cooling to 4° C.

[4] = Water solubility assessed visually at room temperature; format: physicochemical; conditions: in water, visual assessment
Method: Dowex MAC-3 resin (proton form) was swollen and neutralized with excess NaOH/water solution, and then assembled into a column. After the resin was balanced with 2 column volumes of 30 vol % water in ethanol, 1 column volume of a 0.1 g/mL acid in 30 vol % water in ethanol solution was loaded and incubated in the column for 10 min. Subsequently, the resin was rinsed with 2 column volumes of 30 vol % water in ethanol, and the eluent was collected. The pH of the 1 wt % solutions/suspensions of the solids increased from 4 to 8 after passing through the column. The solvent was then evaporated under vacuum at mild heat (40° C.) to provide the sodium carboxylate salts. The sodium salts were fully soluble in water (deionized with 18MΩ resistivity), while the starting carboxylic acids were insoluble. The solubility of the surfactants in water was assessed visually at room temperature. The mixture at each concentration was examined after at least 10 min of mild shaking and ultrasonic bath agitation to see if the surfactant completely dissolved. […] Surface tension was determined with a Wilhelmy Plate tensiometer (Cahn DCA-322) at room temperature. Glass slides manufactured by Corning with a width of 22 mm and thickness of 0.1 mm were used as probes. The motor speed was set to be 100 μm/sec. The CMC was determined from the break point of Υvs. log C diagram with a custom Microsoft Visual Basic program.

[5] = Ross-Miles foam test (ASTM D1173-07); format: physicochemical; conditions: 1 wt % solution
Method: The Ross-Miles foam test was performed according to the test protocol described in ASTM D1173-07. […] 50 mL of each surfactant solution (1 wt %) was carefully poured into the 1 meter glass column, without creating any foam, which is called the receiver. A 200 mL pipette with the surfactant solution is placed 90 cm above the receiver and the solution is allowed to drop into the foam receiver. The height of the foam produced is measured immediately and after 5 minutes.

[6] = Hardness (calcium chloride) tolerance; format: physicochemical; conditions: for CaCl2 Tolerance / Hardness Tolerance: CaCl2 added, cooled to 4° C., heated to 25° C., visual
Method: The Krafft temperature of the surfactant with the concentration at the room temperature CMC was determined by cooling the solution to 4° C. and then raising the temperature by 1° C. steps and visually inspecting its phase behavior after the solution reached thermal equilibrium. For hardness tolerance, a known amount of calcium chloride was added to the solution prior to cooling to 4° C.

[7] = literature value (footnotes a, b); cited from earlier work
[8] = cited from earlier work; for CMC/C20: literature value (footnotes b, d)
[9] = literature value (footnote c); cited from earlier work
[10] = literature value (footnotes a, c); cited from earlier work

Molecule | CMC [1] [mM] | CMC/C20 [1] | pC20 [1] | ΥCMC (surface tension at CMC) [1] [mN/m] | Draves wetting time of 0.1 wt % solution [2] [s] | Precipitation of 1 wt % solution in 4° C. water bath [3] | Water Solubility [4] | CaCl2 Tolerance [6] [µM] | Hardness Tolerance [6] [ppm as CaCO3] | CMC/C20 [8] | further results
CCCCCCCCCCCC(=O)OC(CCSC)C(=O)[O-].[Na+] (centres unmarked) [C12ESCOONa] | 1.0 | 5.55 | 3.84 | 35 | 11 | did not show precipitation | 282 mM | 100 | 10 |  | Draves wetting performance compared with references ([2]; 0.1 wt % solutions): outperformed NaL in wetting time with a comparable performance to SDS; Foam dissipation ([5]; foam height immediately and after 5 minutes): dissipates much faster; Foam height ([5]; versus SDS, SDBS, AES): comparable to the reference anionic surfactants; Calcium tolerance relative to the linear carboxylate (NaL) ([6]; versus NaL): approximately 2.5 orders of magnitude; Calcium tolerance relative to the linear sulfate SDS ([6]; versus SDS): about half an order of magnitude better
CCCCCCCCCCCC(=O)OC(CC[S+](C)[O-])C(=O)[O-].[Na+] (centres unmarked) [C12ESOCOONa] | 1.7 | 3.15 | 3.27 | 40 |  | did not show precipitation | >1000^ mM | 5000 | 500 |  | Hardness tolerance (of CaCl2) ([6]; text of b163): 5000 µM; Hardness tolerance relative to the unoxidized form ([6]; versus C12ESCOONa): 50 times
CCCCCCCCCCCCCCCC(=O)OC(CC[S+](C)[O-])C(=O)[O-].[Na+] (centres unmarked) [C16ESOCOONa] | 0.54 | 4.56 | 4.07 | 42 |  | did not show precipitation | 117 mM | 100 | 10 |  | 
CCCCCCCCCCCC(=O)[O-].[Na+] [NaL, sodium laurate, reference compound] | 19.1 |  | 3.32 | 30 | 52 |  |  | 0.5 | 0.05 | 38.5^b | Krafft Point [7]: 13^a ° C.; solubility ([4]; thermodynamic from solid): 90 mM
CCCCCCCCCCCCOS(=O)(=O)[O-].[Na+] [SDS, sodium dodecyl sulfate] |  |  |  |  | 11 |  |  |  |  | 2.6^d | CMC ([8]; literature value (footnote d)): 12.4^d mM; pC20 ([8]; literature value (footnote d)): 2.36^d; ΥCMC (surface tension at CMC) ([8]; literature value (footnote d)): 40^d mN/m; CaCl2 Tolerance [9]: 40^c μM; Hardness Tolerance [9]: 4^c ppm as CaCO3
sodium dodecylbenzene sulfonate [SDBS, reference compound] | 3.1 | 5.30 | 3.24 | 34 |  |  |  |  |  |  | Water Solubility [10]: 575^a mM
